For series [1] the following is noted: cited from earlier work.
For series [2] the following is noted: 25° C.; cited from earlier work.
Series [3] can be described thus: drug aerosol purity and recovered yield after vaporization from a percussively ignited heat package, HPLC. Format: physicochemical.
The conditions of series [4]: for average nicotine purity of the aerosol: maximum temperature 300° C., air flow 20 L/min. On the procedure:
The purity of nicotine in an aerosol produced by vaporizing thin films of (nicotine)2-ZnBr2 was also determined. The percent purity of nicotine in the aerosol was determined by comparing the area under the curve representing nicotine with the area under the curve for all other components separated by HPLC.
The coatings of (nicotine)2-ZnBr2 complex were vaporized by applying a current to the metal foil sufficient to heat the coatings to temperatures of 300° C., 350° C., and 400° C. The aerosol formed by vaporizing the coating in an air flow of 20 L/min was analyzed by collecting the aerosol on oxalic acid coated filters. The collected aerosol was extracted from the filters with 5 mL of an aqueous solution containing 0.1% TFA. A Varian HPLC system having a single XTerra RP18, 4.6×150 mm column, with an eluant solution comprising a 75% aqueous phase of perchloric acid solution with one ampoule of 1-octanesulfonic acid sodium salt concentrate at pH 2, and a 25% organic phase of acetonitrile was used. The HPLC was performed under isocratic run conditions for 20 minutes.

The conditions of series [5]: 350° C., air flow 28.3 L/min. As for the experimental part:
To coat metal foils, the (nicotine)2-ZnBr2 complex was dissolved in chloroform. Two separate coating thickness of the (nicotine)2-ZnBr2 complex on stainless steel were prepared. A 169.4 mg/mL solution of (nicotine)2-ZnBr2 complex in chloroform and a 338.8 mg/mL solution of (nicotine)2-ZnBr2 complex in chloroform were made. Exposure to light was minimized at all times during and after formation of these solutions. The (nicotine)2-ZnBr2 complex for each solution was hand coated onto 0.005 inch thick stainless foils using a 10 uL Hamilton syringe. 5.9 uL of the 169.4 mg/mL (nicotine)2-ZnBr2 complex solution was coated onto both sides of an area of 1.27 cm×2.3 cm of stainless steel. This corresponds to a 2 μm film thickness coating which contained about 1 mg of nicotine. Similarly, 8.8 μL of the 338.8 mg/mL (nicotine)2-ZnBr2 complex solution was coated onto both sides of an area of 1.27 cm×2.3 cm of stainless steel. This corresponds to a […] film thickness coating which contained about […] of nicotine The coatings were dried under vacuum for about 1 hour at 25° C. The coatings of (nicotine)2-ZnBr2 complex were stored in a vacuum for at least 30 minutes and protected from light prior to use.
The coatings of (nicotine)2-ZnBr2 complex were vaporized by applying a current of 13.0V to the metal foil sufficient to heat the coatings to temperature of 350° C. The aerosol formed by vaporizing the coating in an air flow of 28.3 L/min was analyzed by collected the aerosol on oxalic acid coated filters using an 8 stage Anderson impactor. […] After vaporization the filters were extracted with 5 mL of 0.1% trifluoroacetic acid/DI H2O and analyzed by HPLC.

For series [6] the following is noted: airflow about 20 L/min.
Setting [7] is: smokeless nicotine products (chewing tobacco, oral snuff, tobacco sachets), buccal absorption.

The structures appear in SMILES notation. Like-named read-outs stand apart in the source and are kept apart here.

As to `CN1CCCC1c1cccnc1` (stereo not shown) [nicotine], the “time to attain nicotine blood level peak” value in series [1] (cigarette smoking) was at most 10 min. In addition, the “nicotine blood level peak” value in series [1] (produced by cigarettes) was 30 to 40 ng/mL. Further, in series [1] (setting [7]), the “maximum nicotine blood concentration” value is given as “approximately 12 ng/mL” and the “time of use to attain maximum nicotine blood concentration” value was “approximately 30 minutes”. In series [2], the vapor pressure is 0.0425 mmHg.

As for `Cc1nnc2n1-c1ccc(Cl)cc1C(c1ccccc1)=NC2` [alprazolam], in series [3], the “purity of the resultant aerosol” value is recorded as 96.8% and the “recovered yield of aerosol” value amounted to 100%.

With `CC(C)C(=O)OCC(=O)[C@@]12O[C@H](C3CCCCC3)O[C@@H]1C[C@H]1[C@@H]3CCC4=CC(=O)C=C[C@]4(C)[C@H]3[C@@H](O)C[C@@]12C` [ciclesonide], the “purity of the resultant aerosol” value in series [3] (percussively ignited heat package, greater than 800° C., air flow 20 L/min, film 1.58 μm alprazolam, 6.33 μm pramipexole, 2.53 μm ciclesonide) was found to be 85.6%.

Turning to `CN1CCCC1c1cccnc1.CN1CCCC1c1cccnc1.[Br][Zn][Br]` (stereo not shown) [(nicotine)2-ZnBr2], the “average nicotine purity of the aerosol” value in series [4] (2 μm thick thin film) is listed as “about 99.5%”; in series [4] (6 μm thick thin film) it was “about 99.99%”. In series [4] (for a given vaporization temperature), the “purity of nicotine aerosol from 6 μm film compared with 2 μm film” value is “greater”. Besides, the “change of nicotine purity of the aerosol” value in series [4] (thin film heated to a maximum temperature of greater than 300° C.) is given as “decreased”. The “MMAD of the nicotine aerosol” value in series [5] (2 μm thick film) is given as 2.00; in series [5] (6 μm thick film), 1.79. For the same molecule, the “purity of the nicotine aerosol” value in series [5] (2 μm thick film) and in series [5] (6 μm thick film) was “greater than 97%” each time. Also, the “average yield of nicotine in the aerosol” value in series [6] (2 μm thick thin film, temperature range 300° C. to 400° C.) was “about 60±7%”; in series [6] (6 μm thick thin film, maximum temperature 300° C.), “about 51±2%”; in series [6] (6 μm thick thin film, maximum temperature 400° C.), “about 73±1%”.
